Data on eleven compounds can be found in article PMC11672653 (Antibiotics, 2024).

The subject of data set [1] is polyclonal antibodies against ERM (anti-ERM antibody). The data set can be described thus: Competitive indirect ELISA with anti-eremomycin antibody and heterologous VCM coating conjugates. Format: binding, rabbit. The note with it: for IC50: cross-reactivity study, eremomycin antibody-based ELISA for vancomycin (coating BSA-VCM×50f); for CR (cross-reactivity): relative to vancomycin = 100%, eremomycin antibody-based ELISA (coating BSA-VCM×50f). On the procedure: The coating conjugates were adsorbed in 96-well plates from solutions (0.05–1.5 µg/mL) in 0.1 mL CBB. After overnight incubation at 4 °C, the plates were washed three times with PBST to remove unbound reagent. Serial dilutions of antibodies in 0.1 mL 1% BSA-PBST were combined with standard (0, 0.01–10,000 ng/mL) in 0.1 mL PBST and incubated for 1 h at 25 °C. Following the washing procedure, the bound antibody was then detected using the GAR-HRP (1 h, 37 °C) in 0.1 mL of 1% BSA-PBS and subsequently washed out. The enzymatic activity was determined by the addition of TMB substrate (0.1 mL) to the wells, followed by the addition of 0.1 mL of 1 M sulfuric acid 30 min later, which terminated the reaction. The absorbance of the colored reaction product was read at 450 nm using a LisaScan spectrophotometer (Erba Mannheim, Karásek, Czech Republic).
The maximum optical output signal (100%) at zero concentration of VCM was referred to as B0. The decrease in the signal caused by each antibiotic concentration was expressed as the B/B0 ratio and was used to construct standard curves using a four-parameter logistic fitting in GraphPad Prism 8.0 software. The VCM half-inhibitory concentration (IC50) served as the sensitivity value for the comparison of assay variants and the cross-reactivity of analogs.
The checkerboard titration was employed to identify the optimal ratio of coating antigen to antibody, with concentrations taken in a serial fashion.

For data set [2] the following is noted: cited from earlier work.
A short description of data set [3]: HPLC-MS/MS re-analysis of frozen VCM-spiked human serum (accuracy, stability). The note with it: one week, several freeze/thaw cycles. The protocol:
The same samples spiked with VCM were frozen and analyzed by HPLC-MS/MS one week later.
Frozen serum samples were thawed prior to analysis and assayed for VCM concentration by ELISA and LC-MS/MS in parallel. The procedure and sample preparation for LC-MS/MS analysis are detailed in the Supplementary File.
An aliquot (10 μL) of the analyte working solution and an aliquot (10 μL) of the IS working solution (1000 ng/ml) were added to an aliquot (100 μL) of serum. After vortexing the sample, 400 μL of cooled (4 °C) water contacting 15% trifluoroacetic acid was added for precipitation, and the sample was mixed well and centrifuged (2750 × g, 15 min, 4 °C). An aliquot (20 μL) of the supernatant was transferred to a test plate containing 230 μL ACN/H2O (10/90) solution for further UPLC-MS/MS analysis (Table S2). Calibration was constructed as a function of VCM concentrations versus corresponding peak area values (Figure S2).
Table S2. Calibration of spiked human serum samples using HPLC-MS/MS (n=4) […]
Figure S2. Calibration of spiked human serum samples using HPLC-MS/MS
Table S3. Recovery from spiked human serum samples using HPLC-MS/MS (N=6) […]
(1 picture or pasted object on this page, not shown here)

One may read the IC50 as the concentration at which inhibition is half-maximal. For the compound `NCC[C@H](O)C(=O)N[C@@H]1C[C@H](N)[C@@H](O[C@H]2O[C@H](CN)[C@@H](O)[C@H](O)[C@H]2O)[C@H](O)[C@H]1O[C@H]1O[C@H](CO)[C@@H](O)[C@H](N)[C@H]1O` [Amikacin], in data set [1], the IC50 was >10,000 ng/mL and the “CR (cross-reactivity)” value is on record as under 0.3%.
The corresponding values for `CC[C@H]1OC(=O)[C@H](C)[C@@H](O[C@H]2C[C@@](C)(OC)[C@@H](O)[C@H](C)O2)[C@H](C)[C@@H](O[C@@H]2O[C@H](C)C[C@H](N(C)C)[C@H]2O)[C@](C)(O)C[C@@H](C)CN(C)[C@H](C)[C@@H](O)[C@]1(C)O` [Azithromycin] are >10,000 ng/mL and under 0.3%.
The corresponding values for `CNC(C)C1CCC(N)C(OC2C(N)CC(N)C(OC3OCC(C)(O)C(NC)C3O)C2O)O1` (centres unmarked) [Gentamicin] are >10,000 ng/mL and under 0.3%.
In the case of `CC(=O)NC[C@H]1CN(c2ccc(N3CCOCC3)c(F)c2)C(=O)O1` [Linezolid], in data set [1], the IC50 is reported as >10,000 ng/mL and the “CR (cross-reactivity)” value is under 0.3%.
For `C[C@@H](O)[C@H]1C(=O)N2C(C(=O)O)=C(S[C@@H]3CN[C@H](C(=O)N(C)C)C3)[C@H](C)[C@H]12` [Meropenem], in data set [1], the IC50 is >10,000 ng/mL and the “CR (cross-reactivity)” value is on record as under 0.3%.
The matching figures for `CN(C)c1cc(NC(=O)CNC(C)(C)C)c(O)c2c1C[C@H]1C[C@H]3[C@H](N(C)C)C(O)=C(C(N)=O)C(=O)[C@@]3(O)C(O)=C1C2=O` [Tigecycline]: >10,000 ng/mL and under 0.3%.
As for `CN[C@H](CC(C)C)C(=O)N[C@H]1C(=O)N[C@@H](CC(N)=O)C(=O)N[C@H]2C(=O)N[C@H]3C(=O)N[C@H](C(=O)N[C@H](C(=O)O)c4cc(O)cc(O)c4-c4cc3ccc4O)[C@H](O)c3ccc(c(Cl)c3)Oc3cc2cc(c3O[C@@H]2O[C@H](CO)[C@@H](O)[C@H](O)[C@H]2O[C@H]2C[C@](C)(N)[C@H](O)[C@H](C)O2)Oc2ccc(cc2Cl)[C@H]1O` [Vancomycin], the “recommended Ctrough range” value in data set [2] is 15 to 20 mg/L. In addition, the “stability in human serum” value in data set [3] is reported as “stability of the analyte in human serum”.
On to Colistin, for which, in data set [1], the IC50 is reported as >10,000 ng/mL and the “CR (cross-reactivity)” value is under 0.3%.
The corresponding values for Eremomycin are 33.0 ng/mL and 104%.
In the case of Polymyxin B, in data set [1], the IC50 is reported as >10,000 ng/mL and the “CR (cross-reactivity)” value is given as under 0.3%.
For the compound Teicoplanin, in data set [1], the IC50 is >10,000 ng/mL and the “CR (cross-reactivity)” value is reported as under 0.3%. Further, in data set [1] (listed as teicoplanin), the “CR (cross-reactivity)” value is given as under 0.3%.
